Measurements published in patent publication US8575091B1, “Amylin analogues and pharmaceutical compositions thereof” (Novo Nordisk A/S, priority 2012, dated 2013).
pEC50, pIC50: −log10 of the molar value. Numbered stars: 1 amine (or outer) side, 2 acyl side, 3 side chain; on linkers, the order of the positions; unused ones are H or OH. Bridge positions count the residues as written; N and C are the ends. Side chains are listed from the residue outwards. Peptide text beside a SMILES is read from it. * marks the point of attachment. C20 diacid = O=C(O)CCCCCCCCCCCCCCCCCCC(=O)*; γGlu = O=C(O)[C@H](CCC(=O)[*:2])N[*:1]

Experiments:
[1] = target: T1, human calcitonin receptor (Homo sapiens, UniProt P30988); assay: Assay (VII) binding to the human calcitonin receptor (SPA, 125I-Calcitonin); details: read-out: hCTR bind IC50;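 further: cell membranes coupled to SPA beads, competitive displacement read by scintillation counting, IC50 derived from a one-site competition fit as a measure of receptor affinity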
T1 construct: expressed in transfected cells
T1 sequence (P30988 25-474): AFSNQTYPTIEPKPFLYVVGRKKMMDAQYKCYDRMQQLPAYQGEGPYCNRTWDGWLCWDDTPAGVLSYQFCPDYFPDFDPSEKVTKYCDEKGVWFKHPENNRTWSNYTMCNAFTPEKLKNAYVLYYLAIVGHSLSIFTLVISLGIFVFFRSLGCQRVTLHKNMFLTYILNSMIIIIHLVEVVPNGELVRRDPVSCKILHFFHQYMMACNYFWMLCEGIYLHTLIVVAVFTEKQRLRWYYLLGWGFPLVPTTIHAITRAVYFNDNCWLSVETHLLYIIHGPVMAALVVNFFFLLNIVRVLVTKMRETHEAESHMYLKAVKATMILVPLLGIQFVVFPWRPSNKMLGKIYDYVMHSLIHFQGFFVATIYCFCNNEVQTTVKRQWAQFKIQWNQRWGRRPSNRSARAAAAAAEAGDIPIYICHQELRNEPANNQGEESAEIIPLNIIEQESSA

[2] = target: T2, human amylin receptor (amylin 3(a) receptor: human calcitonin receptor + RAMP-3) (Homo sapiens, UniProt O60896+P30988); assay: Assay (II)a functional assay, human amylin receptor (CRE luciferase, BHK cells); assay type: cell-based; details: for pEC50: functional assay, human amylin receptor, read-out: hAmylin-R funct. EC50
T2 construct: expressed in transfected cells
T2 sequence (P30988 25-474): T1 sequence (P30988 25-474)
T2 sequence (O60896 24-148 partner): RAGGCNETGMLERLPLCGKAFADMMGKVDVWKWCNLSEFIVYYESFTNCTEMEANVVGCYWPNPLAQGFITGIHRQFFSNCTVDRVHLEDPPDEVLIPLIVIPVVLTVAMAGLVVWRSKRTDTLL

human amylin receptor = target: T3, human amylin receptor (Homo sapiens, UniProt O60896+P30988); assay: Assay (V) binding to the human amylin receptor (SPA, 125I-rat amylin); details: human amylin receptor membranes, SPA; read-out: hAmylin-R bind IC50
T3 construct: expressed in transfected cells
T3 sequence (P30988 25-474): T1 sequence (P30988 25-474)
T3 sequence (O60896 24-148 partner): T2 sequence (O60896 24-148 partner)
How it was run: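 IC50, taken as receptor affinity, came from one-site binding competition analysis of scintillation proximity counts. Amylin 3(a)/CRE-luc cell membranes (35 ng/μL final) were mixed with SPA beads (0.05 mg/well) in 50 mM Hepes pH 7.4 containing CaCl2, MgCl2, 0.1% OA and 0.02% Tween20.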

Wistar rats = assay: Assay (XII) single subcutaneous administration, plasma calcium in rats; assay type: in vivo, rat; details: for Plasma calcium red (%) 0-12 h: single s.c., maximal reduction 0-12 h, compared to vehicle
Protocol: Assay (XII)—Effect from Single Subcutaneous Administration of Analogue on Plasma Calcium in Rats
Male Wistar rats (Taconic Europe, ˜250 g at test date) were acclimatized to handling prior to the study. Rats were divided in groups of five and subcutaneously dosed with test compound at time=0. At time T=−15 min; 1 h, 2 h, 4 h, 7 h, 12 h, and 24 h a blood sample was obtained and heparin stabilized plasma was analysed for total calcium (Cobas, Hitachi). Data are illustrated in graphs as mean±SEM.

[3] = target: T1, human calcitonin receptor; assay: Assay (II)a functional assay, human calcitonin receptor (CRE luciferase, BHK cells);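 further: luminescence from a CRE-driven luciferase reporter, read by single photon counting after cells were exposed to test samples for 3 h at 37 °C under 5% CO2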; assay type: cell-based; details: read-out: hCTR funct. EC50
rat amylin receptor = target: T4, rat amylin receptor (Rattus norvegicus, UniProt P32214+Q9JJ73); assay: Assay (VI) binding to the rat amylin receptor; details: rCTR bind IC50 divided by rAmylin-R bind IC50
T4 construct: expressed in transfected cells; host or cells: BHK tk'ts 13 (transient, FuGENE 6), membranes
T4 sequence (P32214 25-479 isoform P32214-2 limits assumed): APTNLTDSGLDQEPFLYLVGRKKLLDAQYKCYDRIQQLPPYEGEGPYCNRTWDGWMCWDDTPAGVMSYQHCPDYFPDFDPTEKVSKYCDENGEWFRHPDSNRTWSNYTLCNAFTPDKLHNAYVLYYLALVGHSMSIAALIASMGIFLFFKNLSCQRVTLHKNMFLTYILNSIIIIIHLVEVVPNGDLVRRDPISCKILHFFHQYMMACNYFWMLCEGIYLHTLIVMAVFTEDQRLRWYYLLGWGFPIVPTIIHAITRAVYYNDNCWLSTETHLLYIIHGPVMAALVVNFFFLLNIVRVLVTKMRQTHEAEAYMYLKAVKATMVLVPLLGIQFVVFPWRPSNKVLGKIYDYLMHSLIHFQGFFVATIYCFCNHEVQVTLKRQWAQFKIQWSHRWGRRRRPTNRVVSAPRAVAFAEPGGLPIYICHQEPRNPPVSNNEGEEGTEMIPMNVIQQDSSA
T4 sequence (Q9JJ73 23-147 partner): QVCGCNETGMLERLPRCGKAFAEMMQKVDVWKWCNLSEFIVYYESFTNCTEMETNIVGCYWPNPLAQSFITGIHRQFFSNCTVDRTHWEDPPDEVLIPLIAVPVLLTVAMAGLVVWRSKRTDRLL
How it was run: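 Binding as in the human amylin receptor binding assay, but with membranes from BHK tk'ts 13 cells transiently co-transfected with rat calcitonin receptor and rat RAMP 3 […]. Membranes were prepared from cells harvested about 48 hours after transfection.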

SMILES | pIC50 [1] | Ratio hCT/hAmylin funct. ([2]; Table 6, human functional selectivity (hCTR EC50 / hAmylin-R EC50)) | Ratio hCT/hAmylin funct. ([2]; Table 6a, human functional selectivity (hCTR EC50 / hAmylin-R EC50), at least 5) | Ratio hCT/hAmylin funct. ([2]; Table 6i, hCTR funct. EC50 / hAmylin-R funct. EC50) | Ratio hCT/hAmylin funct. ([2]; Table 6j, hCTR funct. EC50 / hAmylin-R funct. EC50) | Ratio hCT/hAmylin funct. ([2]; Table 6k, hCTR funct. EC50 / hAmylin-R funct. EC50) | pEC50 [2] | pIC50 (human amylin receptor) | Plasma calcium red (%) 0-12 h (Wistar rats; 30 nmol/kg) [%] | suppression of plasma calcium level relative to vehicle (Wistar rats; single subcutaneous, over 24 hours, 30 nmol/kg) | pEC50 [3] | Plasma calcium red (%) 0-12 h (Wistar rats; 10 nmol/kg) [%] | Ratio rCT/rAmylin binding (rat amylin receptor; Table 7b) | Ratio rCT/rAmylin binding (rat amylin receptor; Table 7c) | Ratio rCT/rAmylin binding (rat amylin receptor)
CC[C@H](C)[C@H](NC(=O)[C@H](C)NC(=O)CNC(=O)[C@H](Cc1ccccc1)NC(=O)[C@H](CC(N)=O)NC(=O)[C@@H]1CCCN1C(=O)[C@H](CO)NC(=O)[C@H](CO)NC(=O)[C@H](Cc1c[nH]cn1)NC(=O)[C@H](CCCNC(=N)N)NC(=O)[C@H](CC(C)C)NC(=O)[C@H](Cc1ccccc1)NC(=O)[C@H](CCC(=O)O)NC(=O)[C@H](C)NC(=O)[C@H](CC(C)C)NC(=O)[C@H](CCCNC(=N)N)NC(=O)[C@H](CCC(N)=O)NC(=O)[C@@H](NC(=O)[C@H](C)NC(=O)[C@@H]1CSSC[C@H](NC(=O)[C@@H](N)CCCCNC(=O)CC[C@H](NC(=O)CCCCCCCCCCCCCCCCCCC(=O)O)C(=O)O)C(=O)N[C@@H](CC(N)=O)C(=O)N[C@@H]([C@@H](C)O)C(=O)N[C@@H](C)C(=O)N[C@@H]([C@@H](C)O)C(=O)N1)[C@@H](C)O)C(=O)N1CCC[C@H]1C(=O)N[C@@H](CO)C(=O)N[C@@H](CO)C(=O)N[C@H](C(=O)N[C@@H](CC(N)=O)C(=O)N[C@H](C(=O)NCC(=O)N[C@@H](CO)C(=O)N[C@@H](CCCNC(=N)N)C(=O)N[C@H](C(=O)N[C@@H](Cc1ccc(O)cc1)C(N)=O)[C@@H](C)O)C(C)C)[C@@H](C)O [Example 51] (H-K([γGlu-C20 diacid])CNTATCATQRLAEFLRHSSPNFGAIPSSTNVGSRTY-NH2; disulfide 2-7) | 7.51 | 14.0 | 14.0 | 14.0 | 14.0 | 14.0 | 9.43 | 9.08 | 10 | None of the example compounds at 30 nmol/kg trigger a notable suppression of the calcium level | 8.28 |  |  |  | 
CC[C@H](C)[C@H](NC(=O)[C@H](C)NC(=O)CNC(=O)[C@H](Cc1ccccc1)NC(=O)[C@H](CC(N)=O)NC(=O)[C@@H]1CCCN1C(=O)[C@H](CO)NC(=O)[C@H](CO)NC(=O)[C@H](Cc1c[nH]cn1)NC(=O)[C@H](CCCNC(=N)N)NC(=O)[C@H](CC(C)C)NC(=O)[C@H](Cc1ccccc1)NC(=O)[C@H](CCC(=O)O)NC(=O)[C@H](C)NC(=O)[C@H](CC(C)C)NC(=O)[C@H](CCCNC(=N)N)NC(=O)[C@H](CCC(N)=O)NC(=O)[C@@H](NC(=O)[C@H](C)NC(=O)[C@@H]1CSSC[C@H](NC(=O)[C@@H](N)CCCCNC(=O)CC[C@H](NC(=O)CCCCCCCCCCCCCCCCCCC(=O)O)C(=O)O)C(=O)N[C@@H](CC(N)=O)C(=O)N[C@@H]([C@@H](C)O)C(=O)N[C@@H](C)C(=O)N[C@@H]([C@@H](C)O)C(=O)N1)[C@@H](C)O)C(=O)N1CCC[C@H]1C(=O)N[C@@H](CO)C(=O)N[C@@H](CO)C(=O)N[C@H](C(=O)N[C@@H](CC(N)=O)C(=O)N[C@H](C(=O)NCC(=O)N1CCC[C@H]1C(=O)N[C@@H](Cc1c[nH]cn1)C(=O)N[C@H](C(=O)N[C@@H](Cc1ccc(O)cc1)C(N)=O)[C@@H](C)O)C(C)C)[C@@H](C)O [Example 118] (H-K([γGlu-C20 diacid])CNTATCATQRLAEFLRHSSPNFGAIPSSTNVGPHTY-NH2; disulfide 2-7) | 8.42 |  |  |  |  |  | 10.00 | 9.75 | 26 |  | 8.84 |  |  |  | 
CC[C@H](C)[C@H](NC(=O)[C@H](C)NC(=O)CNC(=O)[C@H](Cc1ccccc1)NC(=O)[C@H](CC(N)=O)NC(=O)[C@@H]1CCCN1C(=O)[C@H](CO)NC(=O)[C@H](CO)NC(=O)[C@H](Cc1c[nH]cn1)NC(=O)[C@H](CCCNC(=N)N)NC(=O)[C@H](CC(C)C)NC(=O)[C@H](Cc1ccccc1)NC(=O)[C@H](CCC(=O)O)NC(=O)[C@H](C)NC(=O)[C@H](CC(C)C)NC(=O)[C@H](CCCNC(=N)N)NC(=O)[C@H](CCC(N)=O)NC(=O)[C@@H](NC(=O)[C@H](C)NC(=O)[C@@H]1CSSC[C@H](NC(=O)[C@@H](N)CCCCNC(=O)CC[C@H](NC(=O)CC[C@H](NC(=O)CCCCCCCCCCCCCCCCCCC(=O)O)C(=O)O)C(=O)O)C(=O)N[C@@H](CC(N)=O)C(=O)N[C@@H]([C@@H](C)O)C(=O)N[C@@H](C)C(=O)N[C@@H]([C@@H](C)O)C(=O)N1)[C@@H](C)O)C(=O)N1CCC[C@H]1C(=O)N[C@@H](CO)C(=O)N[C@@H](CO)C(=O)N[C@H](C(=O)N[C@@H](CC(N)=O)C(=O)N[C@H](C(=O)NCC(=O)N1CCC[C@H]1C(=O)N[C@@H](Cc1c[nH]cn1)C(=O)N[C@H](C(=O)N[C@@H](Cc1ccc(O)cc1)C(N)=O)[C@@H](C)O)C(C)C)[C@@H](C)O [Example 124] (H-K([γGlu-γGlu-C20 diacid])CNTATCATQRLAEFLRHSSPNFGAIPSSTNVGPHTY-NH2; disulfide 2-7) | 7.99 |  |  |  |  |  | 9.76 | 9.42 | 11 |  | 8.55 | 3 | 73.0 | 73.0 | 73.0
